Results on five compounds are retold here after patent US7745569B2, “Amyloid specific binding peptides and detecting abeta peptide” (The Regents of the University of California, priority 2003, dated 2010).

“Also recorded” adds a separate entry of the source. Positions of bridges follow the written chain, without caps; N, C: chain ends. Residues, ends and D or L forms follow the SMILES beside them. No end group written: not given here. *: point of attachment. Biotin = O=C1N[C@H]2[C@H](CS[C@H]2CCCCC(=O)*)N1

Data set [1] addresses T1, amyloid form of Aβ1-40 peptide (Homo sapiens, UniProt P05067, R676K/Y681T).
T1 construct: purchased Bachem (Torrence, Calif.)
Put plainly: Staining of Aβ1-40 amyloid by phage clones. It counts as binding. Conditions: 10^11 PFU/ml phage; anti-M13 antibody/alkaline phosphatase detection. The procedure:
Staining and blotting with phage: 10^11 PFU (plaque forming units)/ml of various phage clones were incubated with the amyloid form of Aβ1-40 peptide. Aβ amyloid was made by incubating peptide in TBS (pH 7.4) for 7 days on Falcon 24-well tissue culture wells. After washing, bound phage were visualized by incubation with biotinylated anti-M13 antibody and alkaline phosphatase-conjugated streptavidin, followed by incubation for equivalent times in 5-bromo-4-chloro-3-indolyl phosphate (BCIP) and nitroblue tetrazolium (NBT).

The test system of data set [2] is amyloid plaques in Alzheimer's disease brain. Put plainly: Staining of human brain sections (AD and normal) with Thio-Aβ, Thio and synthetic peptide. It counts as binding. The protocol: Staining of human brain with recombinant Thio-Aβ-protein and synthetic peptides: Normal and AD brain samples were obtained from the UCSD Alzheimer's Research Center (La Jolla, Calif.). Sections from a non-AD amyloidosis patient were obtained from the Department of Pathology (UCSD). Paraffin-embedded samples of cortex or other tissues were sectioned at 10 μm and mounted on glass slides. […] Binding was determined by subsequent staining with anti-Thio antibody and anti-mouse IgG coupled to alkaline phosphatase as above. After washing, staining was developed using 5-bromo-4-chloro-3-indolyl-phosphate and nitroblue tetrazolium for identical periods of time. All washes and incubations were done in phage buffer. The existence of amyloid plaques was confirmed by binding of anti-Aβ monoclonal antibody (2066) to sections from the same brain samples. No significant staining was ever observed with secondary antibody alone. Background staining was allowed to develop to the point where cells in the section were evident.
For staining with synthetic peptide, tissue sections from AD and non-AD brain, as well as from brain, kidney, small bowel, large bowel, and prostate from a non-AD patient with amyloidosis, were cut and prepared as above. Biotinylated peptide ([…]) (SEQ ID NO:4) was added in phage buffer for 1 hour at concentrations ranging from 0.1-10 μM. Sections were washed with phage buffer, incubated with streptavidin coupled to alkaline phosphatase, washed and developed as above. […] Congo Red or hematoxylin and eosin staining was done to confirm the presence of amyloid in amyloidosis sections.

For data set [3], the target named is T2, Aβ1-40 amyloid (Homo sapiens, UniProt P05067, R676K/Y681T).
T2 construct: purchased Bachem (Torrence, Calif.)
It counts as binding. Conditions: immobilized Aβ1-40 amyloid, ELISA. Background: An ELISA detects its analyte on a solid surface through an enzyme-linked reagent.
Experimental: Immobilized Aβ1-40 was blocked in phage panning buffer (Hanks balanced salts with 1 mM CaCl2 and 1 mM MgCl2, 10 mM Hepes, pH 7.4, and 0.5% BSA) for one hour. […] Plates were extensively washed in phage panning buffer without BSA. Anti-Thio antibody (Invitrogen; Carlsbad, Calif.) was added for 30 minutes in phage panning buffer at a dilution of 1:500. After washing, anti-mouse IgG conjugated to alkaline phosphatase was added at 1:500 for 40 minutes. Plates were washed again and incubated with paranitrophenyl phosphate (Sigma; St. Louis, Mo.). Developing substrate was read several times at 405 nm on an ELISA plate reader over the linear range (OD 0.2-1.0) and normalized to the highest binding signal. To calculate dissociation constants, binding curves were fitted by non-linear regression analysis assuming a single class of equivalent binding sites.

For data set [4] the following is noted: mouse, in vivo, iv.
Experimental: (§1) Peptides were injected in sterile Tris-buffered saline, pH 7.4, with 1 mM CaCl2 and 1 mM MgCl2. 4 animals were injected for each condition. Animals were then sacrificed after one minute or two minutes. Immediately upon sacrifice, blood and organs were harvested. To quantitate peptide uptake, brain, liver, and kidney were washed and the tissues lysed by homogenization in doubly distilled water. Organs and blood were centrifuged at 13000 g to collect lysate. Organ lysates or serum were then immobilized on ELISA plates that had been coated with nitrocellulose. Some tissue and serum samples were spiked with known amounts of purified peptide to verify levels of peptide immobilization in different sample types. […] The levels of biotinylated peptide immobilized on ELISA plates was quantitated by binding of alkaline phosphatase-conjugated streptavidin. Levels of streptavidin binding were determined by development with para-nitrophenylphosphate, as in Kang et al. (Neurobiology of Disease 14:146-156 (2003)).
The nature of data set [5]: Uptake of peptide into brain, liver and kidney after tail vein injection. Conditions: mouse, i.v. tail vein, 100 μL of 1 mg/mL; percentage relative to peptide in serum; SD, n=4.
Experimental: as §1

For the compound DWGKGGRWRLWPGASGKTEA, in data set [1], the “staining of Aβ1-40 amyloid by phage clone” value was “identified both small and large (0.5-50 μm) accumulations of Aβ1-40 amyloid; also recorded: stained Aβ1-40 amyloid”.
As for “Thio-Aβ: Recombinant fusion protein of thioredoxin with the cysteine-flanked DWGKGGRWRLWPGASGKTEA (SEQ ID NO:2) peptide (PAECDWGKGGRWRLWPGASGKTEACGPPY; cysteine pairing not given here; also: recombinant fusion with thioredoxin, carrier left off)”, in data set [2] (AD brain sections), the “lowest concentration giving positive staining of amyloid plaques” value is on record as 100 nM and the “staining of neurofibrillary tangles” value is recorded as “not evident”. Also, the “staining of amyloid plaques in AD brain” value in data set [2] (paraffin sections of AD brain) is recorded as “heavily stained amyloid plaques from AD brains; also recorded: bound specifically to amyloid plaques in AD brains; also recorded: confirmed in brains from multiple AD subjects”. For the same compound, the “staining of normal brain” value in data set [2] (paraffin sections of normal (non-AD) brain) is on record as “did not stain any structures in normal brain tissue; also recorded: did not bind to normal brain samples; also recorded: negative in multiple non-AD controls”. Further, in data set [3], the “concentration at which binding to Aβ1-40 amyloid is saturating” value is listed as 200 nM.
As to `CC(C)C[C@H](NC(=O)[C@H](CCCNC(=N)N)NC(=O)[C@H](Cc1c[nH]c2ccccc12)NC(=O)[C@H](CCCNC(=N)N)NC(=O)CNC(=O)CNC(=O)[C@H](CCCCN)NC(=O)CNC(=O)[C@H](Cc1c[nH]c2ccccc12)NC(=O)[C@H](CC(=O)O)NC(=O)CCCC[C@@H]1SC[C@@H]2NC(=O)N[C@@H]21)C(=O)N[C@@H](Cc1c[nH]c2ccccc12)C(=O)N1CCC[C@H]1C(=O)NCC(=O)N[C@@H](C)C(=O)N[C@@H](CO)C(=O)NCC(=O)N[C@@H](CCCCN)C(=O)N[C@H](C(=O)N[C@@H](CCC(=O)O)C(=O)N[C@@H](C)C(=O)O)[C@@H](C)O` (Biotin-DWGKGGRWRLWPGASGKTEA-OH), the “crossing of the blood-brain barrier (in words)” value in data set [4] is reported as “did not cross the blood-brain barrier”.
On to PGRSPFTGKKLFNQEFSQDQ, for which the “staining of Aβ1-40 amyloid by phage clone” value in data set [1] was “stained Aβ1-40 amyloid aggregates more poorly, but still stained well above background levels; also recorded: stained Aβ1-40 amyloid less well”.
For the compound `CC(C)C[C@@H]1NC(=O)[C@H](CCCNC(=N)N)NC(=O)[C@H](Cc2c[nH]c3ccccc23)NC(=O)[C@H](CCCNC(=N)N)NC(=O)CNC(=O)CNC(=O)[C@H](CCCCN)NC(=O)CNC(=O)[C@H](Cc2c[nH]c3ccccc23)NC(=O)[C@H](CC(=O)O)NC(=O)[C@@H](NC(=O)[C@H](CCC(=O)O)NC(=O)[C@H](C)NC(=O)CCCC[C@@H]2SC[C@@H]3NC(=O)N[C@@H]32)CSSC[C@@H](C(=O)NCC(=O)N2CCC[C@H]2C(=O)O)NC(=O)[C@H](C)NC(=O)[C@H](CCC(=O)O)NC(=O)[C@H]([C@@H](C)O)NC(=O)[C@H](CCCCN)NC(=O)CNC(=O)[C@H](CO)NC(=O)[C@H](C)NC(=O)CNC(=O)[C@@H]2CCCN2C(=O)[C@H](Cc2c[nH]c3ccccc23)NC1=O` (Biotin-AECDWGKGGRWRLWPGASGKTEACGP-OH; disulfide 3-24 (inferred); C-terminus assumed), in data set [5], the “% uptake/min, Kidney” value is on record as 0.16 ± 0.02% uptake/min.
